Biological target: T1, AsPC-1 HiBiT-KRASG12D (Homo sapiens, UniProt P01116, G12D)
T1 construct: insert the HiBiT tag onto the N-terminus of one or more of the endogenous KRAS alleles; endogenous in cells; host or cells: AsPC-1 (ATCC CRL-1682), CRISPR-Cas9 knock-in clone, one tagged allele
Assay: HiBiT degradation assay (G12D), AsPC-1 HiBiT-KRASG12D cells
Format: cell-based
Conditions: 24 hours treatment; for Dmax: ASPC1, AsPC-1 HiBiT-KRASG12D cells, maximum degradation observed; for DC50: AsPC-1 HiBiT-KRASG12D cells, HiBiT luminescence
Outline: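 Steps: treat HiBiT-KRASG12D AsPC-1 cells with compound for 24 hours; add alamar blue to 1× and incubate 4 hours to assess viability; wash with PBS; add HiBiT lytic detection reagent, incubate 45 minutes at room temperature; read luminescence. Viability fluorescence is normalized to DMSO wells.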

T1 sequence (P01116 1-188 isoform P01116-2 G12D): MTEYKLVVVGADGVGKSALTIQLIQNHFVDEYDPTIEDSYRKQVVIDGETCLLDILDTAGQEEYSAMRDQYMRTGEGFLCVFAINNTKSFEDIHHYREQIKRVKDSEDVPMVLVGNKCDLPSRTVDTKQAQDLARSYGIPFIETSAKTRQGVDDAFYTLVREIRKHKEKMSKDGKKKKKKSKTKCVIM

Row | Compound | Dmax | DC50
1 | C#Cc1c(F)ccc2cc(O)cc(-c3ncc4c(N5CC6CCC(C5)N6)nc(OC[C@@H]5CC[C@@H](COC(=O)N6CCN(c7cc([C@H](C(=O)N8C[C@H](O)C[C@H]8C(=O)N[C@@H](C)c8ccc(-c9scnc9C)cc8)C(C)C)on7)CC6)N5C)nc4c3F)c12 [Compound 59, [(2S,5S)-5-{[(4-{3,8-diazabicyclo[3.2.1]octan-3-yl}-7-(8-ethynyl-7-fluoro-3-hydroxynaphthalen-1-yl)-8-fluoropyrido[4,3-d]pyrimidin-2-yl)oxy]methyl}-1-methylpyrrolidin-2-yl]methyl 4-{5-[(2R)-1-[(2S,4R)-4-hydroxy-2-{[(1S)-1-[4-(4-methyl-1,3-thiazol-5-yl)phenyl]ethyl]carbamoyl}pyrrolidin-1-yl]-3-methyl-1-oxobutan-2-yl]-1,2-oxazol-3-yl}piperazine-1-carboxylate] | 80 to 100% | < 0.6 µM
2 | Cc1ncsc1-c1ccc([C@H](C)NC(=O)[C@@H]2C[C@@H](O)CN2C(=O)[C@@H](c2cc(OCC3CCN(CCOc4nc(N5CC6CCC(C5)N6)c5cnc(-c6cc(O)cc7cccc(C)c67)c(F)c5n4)CC3)no2)C(C)C)cc1 [Compound 60, (2S,4R)-1-[(2R)-2-{3-[(1-{2-[(4-{3,8-diazabicyclo[3.2.1]octan-3-yl}-8-fluoro-7-(3-hydroxy-8-methylnaphthalen-1-yl)pyrido[4,3-d]pyrimidin-2-yl)oxy]ethyl}piperidin-4-yl)methoxy]-1,2-oxazol-5-yl}-3-methylbutanoyl]-4-hydroxy-N-[(1S)-1-[4-(4-methyl-1,3-thiazol-5-yl)phenyl]ethyl]pyrrolidine-2-carboxamide] | 60 to 80% | < 0.6 µM
3 | Cc1ncsc1-c1ccc([C@H](C)NC(=O)[C@@H]2C[C@@H](O)CN2C(=O)[C@@H](c2cc(OC[C@@H]3CC[C@]4(COc5nc(N6CC7CCC(C6)N7)c6cnc(-c7cccc8ccc(F)c(F)c78)c(F)c6n5)CCCN34)no2)C(C)C)cc1 [Compound 61, (2S,4R)-1-[(2R)-2-(3-{[(3S,7aS)-7a-{[(4-{3,8-diazabicyclo[3.2.1]octan-3-yl}-7-(7,8-difluoronaphthalen-1-yl)-8-fluoropyrido[4,3-d]pyrimidin-2-yl)oxy]methyl}-hexahydro-1H-pyrrolizin-3-yl]methoxy}-1,2-oxazol-5-yl)-3-methylbutanoyl]-4-hydroxy-N-[(1S)-1-[4-(4-methyl-1,3-thiazol-5-yl)phenyl]ethyl]pyrrolidine-2-carboxamide] | 80 to 100% | < 0.6 µM
4 | Cc1ncsc1-c1ccc([C@H](C)NC(=O)[C@@H]2C[C@@H](O)CN2C(=O)[C@H](c2cc(OC[C@@H]3CC[C@]4(COc5nc(N6CC7CCC(C6)N7)c6cnc(-c7cccc8ccc(F)c(F)c78)c(F)c6n5)CCCN34)no2)C(C)C)cc1 [Compound 62, (2S,4R)-1-[(2S)-2-(3-{[(3S,7aS)-7a-{[(4-{3,8-diazabicyclo[3.2.1]octan-3-yl}-7-(7,8-difluoronaphthalen-1-yl)-8-fluoropyrido[4,3-d]pyrimidin-2-yl)oxy]methyl}-hexahydro-1H-pyrrolizin-3-yl]methoxy}-1,2-oxazol-5-yl)-3-methylbutanoyl]-4-hydroxy-N-[(1S)-1-[4-(4-methyl-1,3-thiazol-5-yl)phenyl]ethyl]pyrrolidine-2-carboxamide] |  | > 3 µM
5 | Cc1ncsc1-c1ccc([C@H](C)NC(=O)[C@@H]2C[C@@H](O)CN2C(=O)[C@@H](c2cc(OC[C@@H]3CC[C@]4(COc5nc(N6CC7CCC(C6)N7)c6cnc(-c7cc(O)cc(Cl)c7C7CC7)c(F)c6n5)CCCN34)no2)C(C)C)cc1 [Compound 64, (2S,4R)-1-[(2R)-2-(3-{[(3S,7aS)-7a-({[7-(3-chloro-2-cyclopropyl-5-hydroxyphenyl)-4-{3,8-diazabicyclo[3.2.1]octan-3-yl}-8-fluoropyrido[4,3-d]pyrimidin-2-yl]oxy}methyl)-hexahydro-1H-pyrrolizin-3-yl]methoxy}-1,2-oxazol-5-yl)-3-methylbutanoyl]-4-hydroxy-N-[(1S)-1-[4-(4-methyl-1,3-thiazol-5-yl)phenyl]ethyl]pyrrolidine-2-carboxamide] | 20 to 60% | < 0.6 µM
6 | Cc1ncsc1-c1ccc([C@H](C)NC(=O)[C@@H]2C[C@@H](O)CN2C(=O)[C@H](c2cc(OC[C@@H]3CC[C@]4(COc5nc(N6CC7CCC(C6)N7)c6cnc(-c7cc(O)cc(Cl)c7C7CC7)c(F)c6n5)CCCN34)no2)C(C)C)cc1 [Compound 65, (2S,4R)-1-[(2S)-2-(3-{[(3S,7aS)-7a-({[7-(3-chloro-2-cyclopropyl-5-hydroxyphenyl)-4-{3,8-diazabicyclo[3.2.1]octan-3-yl}-8-fluoropyrido[4,3-d]pyrimidin-2-yl]oxy}methyl)-hexahydro-1H-pyrrolizin-3-yl]methoxy}-1,2-oxazol-5-yl)-3-methylbutanoyl]-4-hydroxy-N-[(1S)-1-[4-(4-methyl-1,3-thiazol-5-yl)phenyl]ethyl]pyrrolidine-2-carboxamide] | < 20% | 1 to 3 µM
7 | CCc1cccc2cc(O)cc(-c3ncc4c(N5CC6CCC(C5)N6)nc(OC[C@]56CCCN5[C@H](COC(=O)N5CCN(c7cc([C@H](C(=O)N8C[C@H](O)C[C@H]8C(=O)N[C@@H](C)c8ccc(C#N)cc8)C(C)C)on7)CC5)CC6)nc4c3F)c12 [Compound 66, [(3S,7aR)-7a-{[(4-{3,8-diazabicyclo[3.2.1]octan-3-yl}-7-(8-ethyl-3-hydroxynaphthalen-1-yl)-8-fluoropyrido[4,3-d]pyrimidin-2-yl)oxy]methyl}-hexahydro-1H-pyrrolizin-3-yl]methyl 4-{5-[(2R)-1-[(2S,4R)-2-{[(1S)-1-(4-cyanophenyl)ethyl]carbamoyl}-4-hydroxypyrrolidin-1-yl]-3-methyl-1-oxobutan-2-yl]-1,2-oxazol-3-yl}piperazine-1-carboxylate] | 60 to 80% | < 0.6 µM
8 | CCc1cccc2cc(O)cc(-c3ncc4c(N5CC6CCC(C5)N6)nc(OC[C@]56CCCN5[C@H](COC(=O)N5CCN(c7cc([C@@H](C(=O)N8C[C@H](O)C[C@H]8C(=O)N[C@@H](C)c8ccc(C#N)cc8)C(C)C)on7)CC5)CC6)nc4c3F)c12 [Compound 67, [(3S,7aR)-7a-{[(4-{3,8-diazabicyclo[3.2.1]octan-3-yl}-7-(8-ethyl-3-hydroxynaphthalen-1-yl)-8-fluoropyrido[4,3-d]pyrimidin-2-yl)oxy]methyl}-hexahydro-1H-pyrrolizin-3-yl]methyl 4-{5-[(2S)-1-[(2S,4R)-2-{[(1S)-1-(4-cyanophenyl)ethyl]carbamoyl}-4-hydroxypyrrolidin-1-yl]-3-methyl-1-oxobutan-2-yl]-1,2-oxazol-3-yl}piperazine-1-carboxylate] |  | > 3 µM
9 | CCc1cccc2cc(O)cc(-c3ncc4c(N5CC6CCC(C5)N6)nc(OCCN5CCC(CC6CN(c7cc([C@H](C(=O)N8C[C@H](O)C[C@H]8C(=O)N[C@@H](C)c8ccc(-c9scnc9C)cc8)C(C)C)on7)C6)CC5)nc4c3F)c12 [Compound 81, (2S,4R)-1-[(2R)-2-(3-{3-[(1-{2-[(4-{3,8-diazabicyclo[3.2.1]octan-3-yl}-7-(8-ethyl-3-hydroxynaphthalen-1-yl)-8-fluoropyrido[4,3-d]pyrimidin-2-yl)oxy]ethyl}piperidin-4-yl)methyl]azetidin-1-yl}-1,2-oxazol-5-yl)-3-methylbutanoyl]-4-hydroxy-N-[(1S)-1-[4-(4-methyl-1,3-thiazol-5-yl)phenyl]ethyl]pyrrolidine-2-carboxamide] | 80 to 100% | < 0.6 µM
10 | CCc1cccc2cc(O)cc(-c3ncc4c(N5CC6CCC(C5)N6)nc(OC[C@]56CCCN5[C@H](COC(=O)N5CCN(c7cc([C@@H](C(=O)N8C[C@H](O)C[C@H]8C(=O)N[C@@H](C)c8ccc(-c9scnc9C)cc8)C(C)C)on7)CC5)CC6)nc4c3F)c12 [Compound 87, [(3S,7aR)-7a-{[(4-{3,8-diazabicyclo[3.2.1]octan-3-yl}-7-(8-ethyl-3-hydroxynaphthalen-1-yl)-8-fluoropyrido[4,3-d]pyrimidin-2-yl)oxy]methyl}-hexahydro-1H-pyrrolizin-3-yl]methyl 4-{5-[(2S)-1-[(2S,4R)-4-hydroxy-2-{[(1S)-1-[4-(4-methyl-1,3-thiazol-5-yl)phenyl]ethyl]carbamoyl}pyrrolidin-1-yl]-3-methyl-1-oxobutan-2-yl]-1,2-oxazol-3-yl}piperazine-1-carboxylate] | 20 to 60% | 0.6 to 1 µM
11 | CCc1cccc2cc(O)cc(-c3ncc4c(N5CC6CCC(C5)N6)nc(OC[C@@]56CCCN5[C@H](CN5CCC7(CC5)CN(c5cc([C@H](C(=O)N8C[C@H](O)C[C@H]8C(=O)N[C@@H](C)c8ccc(-c9scnc9C)cc8)C(C)C)on5)C7)CC6)nc4c3F)c12 [Compound 88, (2S,4R)-1-[(2R)-2-[3-(7-{[(3S,7aS)-7a-{[(4-{3,8-diazabicyclo[3.2.1]octan-3-yl}-7-(8-ethyl-3-hydroxynaphthalen-1-yl)-8-fluoropyrido[4,3-d]pyrimidin-2-yl)oxy]methyl}-hexahydro-1H-pyrrolizin-3-yl]methyl}-2,7-diazaspiro[3.5]nonan-2-yl)-1,2-oxazol-5-yl]-3-methylbutanoyl]-4-hydroxy-N-[(1S)-1-[4-(4-methyl-1,3-thiazol-5-yl)phenyl]ethyl]pyrrolidine-2-carboxamide] | 80 to 100% | < 0.6 µM

Source: patent publication US20250206732A1, “COMPOUNDS AND METHODS FOR THE TARGETED DEGRADATION OF KRAS” (Arvinas Operations, Inc., priority 2022, published 2025)
